Reference: patent US6479544B1, “Therapeutic combinations of fatty acids” (Laxdale Limited, priority 2001, dated 2002)
Read-outs that look alike come from different tables or passages of the source.

Tests used:
[1] = system: patients with schizophrenia; test: Pilot study of AA alone in five patients with schizophrenia; format: in vivo, human; conditions: AA given alone
Text: This interpretation was supported by a pilot study in which AA itself was given to five patients with schizophrenia. […] The administration of AA, without EPA to inhibit phospholipases, may lead to increased formation of eicosanoids rather than to incorporation of AA into phospholipids.

[2] = system: patients with schizophrenia; test: AA given to two patients who had already been taking EPA; format: in vivo, human; conditions: AA 1 g/day added in two patients already taking 2 g/day EPA for 3 months
Text: The conclusion to be drawn from these studies is that EPA is desirable, not in itself but because it raises the AA level in membrane phospholipids. High doses of EPA, far from being valuable in themselves, may be undesirable because they lead to excessive loss of AA from membranes. The way to get around this issue, and to boost the clearly desirable effects of EPA, is to keep to relatively low doses of EPA, but also to boost the level of AA by administering the EPA with either AA or one of its precursors, DGLA or gamma-linolenic acid GLA.

[3] = system: schizophrenia in patients; test: Trial of placebo and three doses of EPA in schizophrenia patients also taking clozapine, assessed by PANSS at baseline and 12 weeks; format: in vivo, human
Procedure: A trial was conducted of the administration of a placebo and three different doses of EPA, 1 g, 2 g and 4 g/day in the treatment of schizophrenia in patients who were also taking the antischizophrenic drug clozapine. […] 31 patents were entered into the study and followed for 12 weeks. They were assessed at baseline and 12 weeks using the Positive and Negative Symptom Scale for Schizophrenia (PANSS). Placebo produced a small effect, 1 g/day produced a larger effect, 2 g/day produced a large effect of 26.0% compared to the usual 15-20% improvements on this scale generated by existing drugs for schizophrenia.

[4] = format: in vivo, human; conditions: + means a rise, − a fall
Procedure: In these patients, and also in a further series of patients, the levels of DGLA, AA, EPA and DHA were measured in human red cells before starting treatment and after 12 weeks. As expected there was a dose-related rise in EPA which was greater the greater the dose. It was also expected that there would be a progressive decline in AA, the larger the EPA dose, the greater the fall in AA.

SMILES | Condition of patients with schizophrenia [1] | Condition of patients with schizophrenia [2] | Percentage improvement from baseline to 12 weeks on PANSS ([3]; 2 g/day) [%] | Change from baseline to 12 weeks in red cell concentration of AA ([4]; 1 g/d) | Change from baseline to 12 weeks in red cell concentration of AA ([4]; 2 g/d) | Change from baseline to 12 weeks in red cell concentration of AA ([4]; 4 g/d) [µg/g] | Percentage improvement from baseline to 12 weeks on PANSS ([3]; 1 g/day) [%] | Percentage improvement from baseline to 12 weeks on PANSS ([3]; 4 g/day) [%]
CCCCC/C=C\C/C=C\C/C=C\C/C=C\CCCC(=O)O [AA, arachidonic acid] | their condition deteriorated | substantial further improvement |  |  |  |  |  | 
CC/C=C\C/C=C\C/C=C\C/C=C\C/C=C\CCCC(=O)O [EPA, eicosapentaenoic acid] |  |  | 26.0 |  |  |  |  | 
CC/C=C\C/C=C\C/C=C\C/C=C\C/C=C\CCCC(=O)OCC [ethyl eicosapentaenoate] |  |  | 26.0 | +2.7 μg/g | +29.4 μg/g | -26.5 | 18.3 | 16.3
